From paper PMC11478334, “Quaternized Curcumin Derivative—Synthesis, Physicochemical Characteristics, and Photocytotoxicity, Including Antibacterial Activity after Irradiation with Blue Light” (Molecules, 2024)
Like-named read-outs stand apart in the source and are kept apart here.

Legend:
MRC-5—lung fibroblasts = experiment: MTT cell viability assay; assay type: cell-based, human
Procedure: (§1) To determine the toxicity of the tested compounds against normal and tumor cells, a cell viability assay was performed using MTT dye. The following cell lines were used: PHDF—primary human dermal fibroblasts, MRC-5—lung fibroblasts, WM266-4—melanoma, and WM115—melanoma. Whenever possible, the IC50 value was calculated for each cell line. The IC50 results are reported in Table 9, while Figure 14 presents graphs illustrating the dependence of cell viability on the concentration of the tested compounds.
(§2) In order to analyze the cytotoxic effect of curcumin and compounds 2 and 3, different cell lines were used: PHDF—primary human dermal fibroblasts, MRC-5—lung fibroblasts, WM266-4—melanoma (low-melanotic), and WM115—melanoma (high-melanotic). All cell lines were seeded onto 96-well flat-bottom plates at a concentration of 15,000 cells/well. Curcumin (1) and compounds 2 and 3 were dissolved in the completed culture medium at the final concentrations of 5 µM, 10 µM, 20 µM, 30 µM, 40 µM, and 50 µM. The final volume of medium in each well was 200 µL. Cells which were not exposed to the tested compounds constituted a control group. After 24 h, each of the reagents was added to the cells. Control cells were not treated with synthesized reagents; they were incubated with a completed cell culture medium. The incubation of cells with 1, 2, or 3 lasted 24 and 48 h. Then, the medium was discarded, and the new medium containing MTT (3-(4,5-dimethylthiazol-2-yl)-2,5-diphenyltetrazolium bromide) (Affymetrix, Cleveland, OH, USA) at a final concentration of 0.5 mg/mL was added to the cell culture. Cells were incubated for 2.5 h in cell culture conditions. Next, the medium was removed, and 100 µL of DMSO (Thermo Scientific, Waltham, MA, USA) was added to dissolve the formed formazan crystals. The absorbance was read with a Multiskan plate reader at 570 nm and the background at 655 nm (Thermo Scientific, Waltham, MA, USA). The experiment was performed in triplicate.
(§3) PHDF cells were extracted from skin pieces collected following mastectomy procedures at the Greater Poland Cancer Centre in Poznań, Poland. Each time, informed patient agreement was acquired for the “The Cancer Genome Atlas (TCGA)” project to utilize biological material for scientific research purposes. […] The MRC-5, WM266-4, and WM115 cell lines were obtained from the American Type Culture Collection (ATCC). For culturing of the PHDF, WM266-4, and WM115 cell lines, the medium contained Dulbecco′s Modified Eagle′s Medium (DMEM) (Biowest, Nuaillé, France), 10% of fetal bovine serum (Biowest, Nuaillé, France), and 1% of penicillin/streptomycin agents (Merck Millipore, Darmstadt, Germany). Cells were incubated in a humidified incubator containing 5% CO2. The MRC-5 cell line was cultured similarly to the method described in our previous article. Briefly, cells were incubated at 37 °C in an atmosphere enriched with 5% CO2. The basic culture medium was Dulbecco’s Modified Eagle’s Medium (DMEM) (Biowest, Nuaillé, France) supplemented with 10% fetal bovine serum (FBS) (Biowest, Nuaillé, France) with the addition of 2 mM L-glutamine and 5% non-essential amino acid solution.

[1] = test system: WM266-4—melanoma (low-melanotic); experiment: MTT cell viability assay; assay type: cell-based
Procedure: as §1, §2, §3

[2] = test system: WM115—melanoma (high-melanotic); experiment: MTT cell viability assay; assay type: cell-based
Procedure: as §1, §2, §3

[3] = test system: PHDF—primary human dermal fibroblasts; experiment: MTT cell viability assay; assay type: cell-based
Procedure: as §1, §2, §3

[4] = UV-vis absorption spectra (spectral properties); assay type: physicochemical
Source text: In the UV–vis spectra of the studied curcumin derivatives 2 and 3, typical absorption bands in the 350–550 nm range were noted (Figure 7). The absorption maxima of 2 and its quaternized derivative 3 were located close to 500 nm in both DMSO and DMF (for 2, λmax 496 nm in DMF and 502 nm in DMSO; for 3, λmax 489 nm in DMF and 495 nm in DMSO), whereas for the unsubstituted curcumin, the absorption maximum was located at 430 nm in DMF and 436 nm in DMSO. This implies that the presence of the BF2 moiety induces a strong bathochromic shift, as reported before. Further conversion of non-ionic 2-(morpholin-4-yl)ethoxy substituents present in 2 into quaternary ammonium cations present in 3 2-(N-methylmorpholinium)ethoxy groups induced a slight […] hypsochromic shift in both solvents. The strong absorption band originates mainly from π-π* electronic transition. To a lesser extent, such peaks come from the n-π* transition, although the importance of this crossing remains unclear.

[5] = Photodecomposition quantum yields (photostability under visible light); assay type: physicochemical; details: for 10^−5 Φp (photodecomposition quantum yield): visible light over 450 nm; for ΦP (photodecomposition quantum yield) / calculated photodecomposition quantum yields, level: visible light λ ≥ 450 nm; for calculated photodecomposition quantum yields, level: solvent not stated
Source text: The absorption spectra of the studied curcumin derivatives 2 and 3 were monitored during the irradiation and compared with curcumin and zinc(II) phthalocyanine (ZnPc) as references (Figure 8). Under visible light irradiation (λ ≥ 450 nm), curcumin derivatives 2 and 3 only slightly decomposed. The calculated quantum yields were at the level of […]. […] Considering the obtained results, the morpholinoethyl and BF2 moieties tend to stabilize the curcumin core and prevent its photodecomposition. Partial reduction in light absorption (expressed by ε values) has also been noted for other photosensitizers subjected to the quaternization when 2-(morpholin-4-yl)ethoxy substituents were transformed into 2-(N-methylmorpholinium)ethoxy ones.
The photostability measurements were conducted in DMSO and DMF at ambient temperature under aerobic conditions according to the previously described method. A 150 W xenon lamp (Optel, Opole, Poland) was utilized as a light source. In order to separate the visible light (>450 nm), the HCC-16 cutting filter was used. The spectral changes under the irradiation were recorded with an OceanOptics Flame spectrophotometer equipped with a DT-MINI-2-GS light source (OceanOptics, Dunedin, FL, USA). The photodegradation quantum yields were then calculated using the previously presented equation [39, 73, 74, 76].

[6] = Homo sapiens, Fibroblast, 24 h incubation, read-out: IC50 24 h
[7] = Homo sapiens, Fibroblast, 48 h incubation, read-out: IC50 48 h (converted)
[8] = 24 h incubation, read-out: IC50 24 h
[9] = 48 h incubation, read-out: IC50 48 h (converted)
[10] = Homo sapiens, Fibroblast, 48 h incubation, read-out: IC50 48 h

| Compound | IC50 (MRC-5—lung fibroblasts; [6]) [µM] | IC50 (MRC-5—lung fibroblasts; [7]) [µM] | IC50 [1, 8] [µM] | IC50 [1, 9] [µM] | IC50 [2, 8] [µM] | IC50 [2, 9] [µM] | IC50 [3, 6] [µM] | IC50 [3, 10] [µM] | absorption maximum λmax ([4]; in DMF) [nm] | absorption maximum λmax ([4]; in DMSO) [nm] | 10^−5 Φp (photodecomposition quantum yield) ([5]; DMF) | 10^−5 Φp (photodecomposition quantum yield) ([5]; DMSO) | calculated photodecomposition quantum yields, level [5] | further results |
| --- | --- | --- | --- | --- | --- | --- | --- | --- | --- | --- | --- | --- | --- | --- |
| F[B-]1(F)OC(/C=C/c2ccc(OCCN3CCOCC3)cc2)=CC(/C=C/c2ccc(OCCN3CCOCC3)cc2)=[O+]1 [Compound 2] | > 50 | 3.8 | > 50 | > 50 | > 50 | > 50 | > 50 | 28.4 | 496 | 502 | 2.90 10^−5 | 5.41 10^−5 | ~10^−4 | ΦP (photodecomposition quantum yield) ([5]; DMF): 2.90 × 10^−5; ΦP (photodecomposition quantum yield) ([5]; DMSO): 5.41 × 10^−5 |
| Curcumin [reference compound] | – | – | 44.9 ± 10.7 | 20.6 | 39.5 ± 9.4 | 18.1 | – | – | 430 | 436 | 9.99 10^−5 | 8.31 10^−5 | – | IC50 (MRC-5—lung fibroblasts; [8]): 39.5 ± 8.8 µM; IC50 (MRC-5—lung fibroblasts; [9]): 18.1 µM; IC50 ([1]; 24 h incubation, listed as curcumin, read-out: IC50 24 h): 45 µM; IC50 ([1]; 48 h incubation, listed as curcumin, read-out: IC50 48 h (converted)): 21 µM; IC50 [3, 8]: > 50 µM; IC50 ([3]; 48 h incubation, read-out: IC50 48 h): 24.6 µM |
| C[N+]1(CCOc2ccc(C=CC3=CC(C=Cc4ccc(OCC[N+]5(C)CCOCC5)cc4)=[O+][B-](F)(F)O3)cc2)CCOCC1 [Compound 3] | > 50 | > 50 | > 50 | > 50 | > 50 | > 50 | > 50 | > 50 | 489 | 495 | 20.10 10^−5 | 6.13 10^−5 | ~10^−4 | – |
